Measurements from patent US20260159485A1, “ANDROGEN RECEPTOR DEGRADERS FOR THE TREATMENT OF CASTRATION-RESISTANT PROSTATE CANCER AND USE THEREOF” (AUTOTAC INC., priority 2021, published 2026).

Experiments:
androgen receptor [1] = target: T1, androgen receptor (Homo sapiens, UniProt P10275); assay: Degradation of androgen receptor through autophagy; format: cell-based; settings: FIG. 2a to 2c
T1 construct: endogenous in cells
T1 sequence (P10275 1-920): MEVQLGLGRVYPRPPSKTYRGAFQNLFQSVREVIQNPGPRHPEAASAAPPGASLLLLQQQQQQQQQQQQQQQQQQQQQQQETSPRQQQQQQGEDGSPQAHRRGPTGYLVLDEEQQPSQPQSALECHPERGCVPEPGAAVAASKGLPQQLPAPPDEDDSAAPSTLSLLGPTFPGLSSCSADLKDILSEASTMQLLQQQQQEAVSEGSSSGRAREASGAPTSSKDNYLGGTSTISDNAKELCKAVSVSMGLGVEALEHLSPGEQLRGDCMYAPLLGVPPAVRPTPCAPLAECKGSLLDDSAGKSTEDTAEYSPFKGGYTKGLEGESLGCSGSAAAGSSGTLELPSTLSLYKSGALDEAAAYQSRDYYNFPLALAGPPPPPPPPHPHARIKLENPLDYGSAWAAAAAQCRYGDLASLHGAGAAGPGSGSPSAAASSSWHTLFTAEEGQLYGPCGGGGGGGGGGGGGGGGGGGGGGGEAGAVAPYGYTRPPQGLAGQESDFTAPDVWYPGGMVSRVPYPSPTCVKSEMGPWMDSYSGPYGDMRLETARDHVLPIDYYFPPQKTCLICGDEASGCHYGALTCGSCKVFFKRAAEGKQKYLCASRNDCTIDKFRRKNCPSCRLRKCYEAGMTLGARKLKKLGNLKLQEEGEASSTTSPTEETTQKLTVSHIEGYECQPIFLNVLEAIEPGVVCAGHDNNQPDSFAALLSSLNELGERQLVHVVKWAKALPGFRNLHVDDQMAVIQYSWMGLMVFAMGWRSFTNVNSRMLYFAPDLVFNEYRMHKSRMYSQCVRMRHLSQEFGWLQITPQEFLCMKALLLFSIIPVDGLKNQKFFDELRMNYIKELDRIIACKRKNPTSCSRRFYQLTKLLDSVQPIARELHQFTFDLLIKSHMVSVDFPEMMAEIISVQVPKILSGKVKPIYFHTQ
Protocol: (§1) Hereinafter, experimental examples to show the effects of the disclosed compounds are described. Unless otherwise described, the following experiments were conducted with conventional materials and methos well known in the an for measuring a similar function.
Experimental Example 2. Anticancer Efficacy Via Degradation of Androgen Receptor

[2] = test system: androgen-responsive and unresponsive cell; assay: Increase of the autophagy flux in androgen-responsive and unresponsive cell; format: cell-based; settings: FIG. 1; for increase of autophagy at low concentration: 0.01 μM
Protocol: as §1
Experimental Example 1. Increase of the Autophagy Flux in Androgen-Responsive and Unresponsive Cell by AR Inhibitors of the Present Invention

[3] = test system: androgen-responsive prostate cancer cell; assay: Cell proliferation / cell cycle of prostate cancer cell; format: cell-based; settings: blocking the cell cycle in G1 phase; FIG. 7
Protocol: as §1
(§2) Experimental Example 3. Compound B Inhibits Proliferation of Androgen-Responsive Prostate Cancer Cell

LNCaP xenograft tumors = assay: Growth of LNCaP xenograft tumors in mice; format: in vivo; settings: FIG. 8a to 8d
Text: Experimental Example 4. […] Inhibition of Tumor Growth

[4] = test system: AR-V7-expressing 22Rv1 xenograft; assay: Tumor growth in AR-V7-expressing 22Rv1 xenograft model; format: in vivo; settings: SCID mice, intraperitoneally 5 times per week, 20 mg/kg; FIG. 10
Protocol: 22Rv1 cells (4×10^6 cells/animal) were injected subcutaneously into 10-week-old male SCID mice to generate xenograft. The mice bearing tumor were randomly divided into vehicle or AUTOTAC treatment groups (4 or 5 mice per group), Compound B was injected via intraperitoneally 5 times per week at a dose of 20 mg/kg body weight, whereas the vehicle group received an equal volume of PBS containing 5% DMSO and 10% solutol. (FIG. 10)

androgen receptor [5] = target: T2, androgen receptor (Homo sapiens, UniProt P10275, T878A); assay: Degradation of androgen receptor in tumor of mice; format: in vivo; settings: LNCaP xenograft tumor; FIG. 8e
T2 construct: from tissue; host or cells: LNCaP xenograft tumour in mice
Text: 2. Degradation of Androgen Receptor

[6] = test system: androgen-responsive prostate cancer cell; assay: Colony formation of prostate cancer cell; format: cell-based; settings: FIG. 6
Protocol: as §1, §2

wild type AR = target: T3, wild type AR (Homo sapiens, UniProt P10275); assay: Degradation of wild type AR in enzalutamide resistant cell; format: cell-based; settings: FIG. 9a
T3 construct: endogenous in cells
T3 sequence (P10275 1-920): T1 sequence (P10275 1-920)
Text: (§3) Experimental Example 5. Xtandi-AUTOTAC Degrades AR Splice Variant 7, Predictive Biomarker of Metastatic Castration-Resistant Prostate Cancer Degradation of AR Variant (FIG. 9a to FIG. 9d)

[7] = test system: AR splice variant 7 (AR-V7); assay: Degradation of AR splice variant 7 in enzalutamide resistant cell; format: cell-based
Text: as §3

AR target genes = assay: Down-regulation of AR signaling pathway: expression of AR target genes; format: cell-based; settings: FIG. 4
Protocol: as §1
3. Down-Regulation of AR Signaling Pathway

androgen receptor [8] = target: T1, androgen receptor; assay: Inactivation of AR: transcriptional activity of androgen receptor; format: cell-based; settings: by forming aggregation with p62 in the cytosol; FIG. 3
Protocol: as §1

T2 sequence (P10275 whole entry T878A): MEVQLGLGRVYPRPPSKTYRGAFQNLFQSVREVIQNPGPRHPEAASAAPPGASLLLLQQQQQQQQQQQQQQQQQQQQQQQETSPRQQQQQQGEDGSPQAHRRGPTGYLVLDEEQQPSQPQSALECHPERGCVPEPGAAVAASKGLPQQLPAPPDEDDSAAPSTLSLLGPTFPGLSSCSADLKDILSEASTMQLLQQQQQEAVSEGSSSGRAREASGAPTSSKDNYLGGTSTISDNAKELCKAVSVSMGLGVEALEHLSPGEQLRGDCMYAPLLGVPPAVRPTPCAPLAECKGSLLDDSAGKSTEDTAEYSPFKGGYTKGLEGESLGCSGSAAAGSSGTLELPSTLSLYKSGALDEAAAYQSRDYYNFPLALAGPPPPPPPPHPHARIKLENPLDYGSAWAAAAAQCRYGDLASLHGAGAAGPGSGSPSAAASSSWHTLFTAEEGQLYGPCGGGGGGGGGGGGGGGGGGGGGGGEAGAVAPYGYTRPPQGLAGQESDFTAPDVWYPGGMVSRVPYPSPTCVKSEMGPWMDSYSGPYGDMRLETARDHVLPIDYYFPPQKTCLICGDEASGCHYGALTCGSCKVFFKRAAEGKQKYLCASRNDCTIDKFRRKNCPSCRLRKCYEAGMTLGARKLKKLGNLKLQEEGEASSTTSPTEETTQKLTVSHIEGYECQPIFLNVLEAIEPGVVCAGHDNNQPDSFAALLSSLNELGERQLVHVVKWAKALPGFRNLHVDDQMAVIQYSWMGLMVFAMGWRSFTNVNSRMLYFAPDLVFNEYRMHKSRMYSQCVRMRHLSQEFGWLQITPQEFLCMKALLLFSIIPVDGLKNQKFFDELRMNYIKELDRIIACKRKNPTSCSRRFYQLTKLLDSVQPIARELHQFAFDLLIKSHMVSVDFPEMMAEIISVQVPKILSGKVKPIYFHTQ
T2 sequence (Q13501 whole entry partner): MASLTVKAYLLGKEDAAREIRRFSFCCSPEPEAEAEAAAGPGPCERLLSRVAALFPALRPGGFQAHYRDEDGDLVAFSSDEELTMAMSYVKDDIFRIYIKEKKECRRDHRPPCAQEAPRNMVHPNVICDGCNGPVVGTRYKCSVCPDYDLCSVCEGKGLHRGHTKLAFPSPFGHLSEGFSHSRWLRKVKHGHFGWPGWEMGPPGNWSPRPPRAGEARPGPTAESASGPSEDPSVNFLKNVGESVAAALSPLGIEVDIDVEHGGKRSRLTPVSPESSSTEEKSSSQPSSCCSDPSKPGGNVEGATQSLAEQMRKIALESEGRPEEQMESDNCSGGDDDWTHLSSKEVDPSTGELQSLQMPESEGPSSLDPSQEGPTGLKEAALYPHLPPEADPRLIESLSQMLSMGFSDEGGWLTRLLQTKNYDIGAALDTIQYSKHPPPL

| Compound | degradation of androgen receptor through autophagy (androgen receptor [1]) | increase of autophagy at low concentration [2] | other results |
| --- | --- | --- | --- |
| CC1(C)C(=O)N(c2ccc(C#N)c(C(F)(F)F)c2)C(=S)N1c1ccc(C(=O)NCCCCCCOCCCCCNC[C@@H](O)COc2cccc(OCc3ccc(F)cc3)c2)c(F)c1 [Compound G, (R)-4-(3-(4-cyano-3-(trifluoromethyl)phenyl)-5,5-dimethyl-4-oxo-2-thioxoimidazolidin-1-yl)-2-fluoro-N-(6-((5-((3-(3-((4-fluorobenzyl)oxy)phenoxy)-2-hydroxypropyl)amino)pentyl)oxy)hexyl)benzamide] | efficiently degrade androgen receptor |  |  |
| O[C@H](CNCCOCCOCCOCCOCCN1CCN(c2nc(-n3cc(Br)nc3Br)cs2)CC1)COc1ccc(OCc2ccc(F)cc2)c(OCc2ccc(F)cc2)c1 [Compound D, (R)-18-(3,4-bis((4-fluorobenzyl)oxy)phenoxy)-1-(4-(4-(2,4-dibromo-1H-imidazol-1-yl)thiazol-2-yl)piperazin-1-yl)-3,6,9,12-tetraoxa-15-azaoctadecan-17-ol] | efficiently degrade androgen receptor |  |  |
| CC1(C)C(=O)N(c2ccc(C#N)c(C(F)(F)F)c2)C(=S)N1c1ccc(C(=O)NCCOCCOCCOCCOCCOCCOCCNC[C@@H](O)COc2ccc(OCc3ccc(F)cc3)c(OCc3ccc(F)cc3)c2)c(F)c1 [Compound C, (R)-N-(24-(3,4-bis((4-fluorobenzyl)oxy)phenoxy)-23-hydroxy-3,6,9,12,15,18-hexaoxa-21-azatetracosyl)-4-(3-(4-cyano-3-(trifluoromethyl)phenyl)-5,5-dimethyl-4-oxo-2-thioxoimidazolidin-1-yl)-2-fluorobenzamide] | efficiently degrade androgen receptor | efficiently increase autophagy |  |
| O=C(COCCOCCOCCOCCNC[C@@H](O)COc1ccc(OCc2ccc(F)cc2)c(OCc2ccc(F)cc2)c1)N1CCN(c2nc(-n3cc(Br)nc3Br)cs2)CC1 [Compound E, (R)-18-(3,4-bis((4-fluorobenzyl)oxy)phenoxy)-1-(4-(4-(2,4-dibromo-1H-imidazol-1-yl)thiazol-2-yl)piperazin-1-yl)-17-hydroxy-3,6,9,12-tetraoxa-15-azaoctadecan-1-one] | efficiently degrade androgen receptor |  |  |
| CC1(C)C(=O)N(c2ccc(C#N)c(C(F)(F)F)c2)C(=S)N1c1ccc(C(=O)NCCOCCOCCOCCOCCNC[C@@H](O)COc2cccc(OCc3ccc(F)cc3)c2)c(F)c1 [Compound F, (R)-4-(3-(4-cyano-3-(trifluoromethyl)phenyl)-5,5-dimethyl-4-oxo-2-thioxoimidazolidin-1-yl)-2-fluoro-N-(18-(3-((4-fluorobenzyl)oxy)phenoxy)-17-hydroxy-3,6,9,12-tetraoxa-15-azaoctadecyl)benzamide] | efficiently degrade androgen receptor |  |  |
| CC1(C)C(=O)N(c2ccc(C#N)c(C(F)(F)F)c2)C(=S)N1c1ccc(OCCOCCOCCOCCOCCOCCNCc2cccc(OCc3ccc(F)cc3)c2)cc1 [Compound I, 4-(3-(4-((1-(3-((4-fluorobenzyl)oxy)phenyl)-5,8,11,14,17-pentaoxa-2-azanonadecan-19-yl)oxy)phenyl)-4,4-dimethyl-5-oxo-2-thioxoimidazolidin-1-yl)-2-(trifluoromethyl)benzonitrile] | efficiently degrade androgen receptor |  |  |
| CC1(C)C(=O)N(c2ccc(C#N)c(C(F)(F)F)c2)C(=S)N1c1ccc(OCCCCCCCC(=O)NCCOCCOCCNCc2cccc(OCc3ccc(F)cc3)c2)cc1 [Compound H, 8-(4-(3-(4-cyano-3-(trifluoromethyl)phenyl)-5,5-dimethyl-4-oxo-2-thioxoimidazolidin-1-yl)phenoxy)-N-(2-(2-(2-((3-((4-fluorobenzyl)oxy)benzyl)amino)ethoxy)ethoxy)ethyl)octanamide] | efficiently degrade androgen receptor |  |  |
| CC1(C)C(=O)N(c2ccc(C#N)c(C(F)(F)F)c2)C(=S)N1c1ccc(C(=O)NCCOCCOCCNC[C@@H](O)COc2ccc(OCc3ccc(F)cc3)c(OCc3ccc(F)cc3)c2)c(F)c1 [Compound A, (R)—N-(2-(2-(2-((3-(3,4-bis((4-fluorobenzyl)oxy)phenoxy)-2-hydroxypropyl)amino)ethoxy)ethoxy)ethyl)-4-(3-(4-cyano-3-(trifluoromethyl)phenyl)-5,5-dimethyl-4-oxo-2-thioxoimidazolidin-1-yl)-2-fluorobenzamide] | efficiently degrade androgen receptor | efficiently increase autophagy |  |
| CC1(C)C(=O)N(c2ccc(C#N)c(C(F)(F)F)c2)C(=S)N1c1ccc(C(=O)NCCOCCOCCOCCOCCNC[C@@H](O)COc2ccc(OCc3ccc(F)cc3)c(OCc3ccc(F)cc3)c2)c(F)c1 [Compound B, (R)—N-(18-(3,4-bis((4-fluorobenzyl)oxy)phenoxy)-17-hydroxy-3,6,9,12-tetraoxa-15-azaoctadecyl)-4-(3-(4-cyano-3-(trifluoromethyl)phenyl)-5,5-dimethyl-4-oxo-2-thioxoimidazolidin-1-yl)-2-fluorobenzamide] | efficiently degrade androgen receptor | efficiently increase autophagy | cell proliferation / cell cycle [3]: inhibits cell proliferation by blocking the cell cycle in G1 phase; tumor growth in Xenograft mouse model (LNCaP xenograft tumors): efficiently inhibits tumor growth; tumor growth in AR-V7-expressing 22Rv1 xenograft model [4]: Inhibits Tumor Growth; degradation of androgen receptor in tumor of mice (androgen receptor [5]): degrades androgen receptor; colony formation of prostate cancer cell [6]: prevents colony formation; degradation of wild type AR (wild type AR): degrades; increase of autophagy at early time point ([2]; 1 h): efficiently increases autophagy; degradation of AR-V7 by sequestering with wild type AR ([7]; FIG. 9a to 9d): can degrade AR-V7 by sequestering with wild type AR; degradation of AR-V7 ([7]; enzalutamide resistant cell, FIG. 9a): degrades; expression of AR target genes (AR target genes): down-regulates expression of AR target genes; transcriptional activity of androgen receptor (androgen receptor [8]): inhibits transcriptional activity of androgen receptor |
